#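 Where inhibition never reached the appropriate level, the endpoint shown equals the highest concentration tested. Otherwise, values were interpolated linearly from a five-concentration, 48-hour dose response in 96-well plates. At the GI50, growth is halved.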 Activity calls are given as the source filed them. Cut-off read from the data, not from the text of the source: active = GI50 up to about 1.1 µM and inactive = higher.
# Experiments:
# Test in all cases: NCI tumour cell line growth inhibition, 48 h
# [1] = test system: KM12
# [2] = test system: SW-620
# [3] = test system: 786-0
# [4] = test system: UO-31
# [5] = test system: UACC-62
# [6] = test system: LXFL 529
# [7] = test system: KM-20L2
# [8] = test system: SN12C
# [9] = test system: Malme-3M
# [10] = test system: SF-295
# [11] = test system: NCI-H23
# [12] = test system: SK-MEL-2
# [13] = test system: K562
# [14] = test system: CAKI-1
# [15] = test system: SNB-19
# [16] = test system: LOX IMVI
# [17] = test system: SNB-78
# [18] = test system: OVCAR-8
# [19] = test system: HL-60
# [20] = test system: M19-MEL
# [21] = test system: UACC-257
# [22] = test system: M14
# [23] = test system: RXF 631
# [24] = test system: XF498
# [25] = test system: DMS-114
# [26] = test system: HT-29
# [27] = test system: SF-268
# [28] = test system: HCC 2998
# [29] = test system: SR
# [30] = test system: HOP-62
# [31] = test system: COLO 205
# [32] = test system: HOP-18
# [33] = test system: A549
# [34] = test system: HCT-15
# [35] = test system: SK-MEL-28
# [36] = test system: TK-10
# [37] = test system: U-251
# [38] = test system: CCRF-CEM
# [39] = test system: SF-539
# [40] = test system: IGROV-1
# [41] = test system: NCI-H460
# [42] = test system: HCT-116
# [43] = test system: A498
# [44] = test system: MOLT-4
# [45] = test system: OVCAR-5
# [46] = test system: SK-OV-3
# [47] = test system: HOP-92
# [48] = test system: ACHN
# [49] = test system: NCI-H522
# [50] = test system: SK-MEL-5
# [51] = test system: DLD-1
# [52] = test system: OVCAR-3
# [53] = test system: RPMI-8226
# [54] = test system: RXF 393
# [55] = test system: OVCAR-4
# [56] = test system: EKVX
# [57] = test system: NCI-H226
# [58] = test system: DMS-273
# [59] = test system: SNB-75
compound,measurement,setting,value
CCOC(=O)[N-]c1ccc(S(=O)(=O)[O+](C)CCl)cc1.CCOC(=O)[N-]c1ccc(S(=O)(=O)[O+](C)CCl)cc1.NC(=O)N=O.NC(=O)OCCCl,GI50,[1],> 100 µM (inactive)
same,GI50,[2],> 100 µM (inactive)
same,GI50,[3],> 100 µM (inactive)
same,GI50,[4],> 100 µM (inactive)
same,GI50,[5],> 100 µM (inactive)
same,GI50,[6],> 100 µM (inactive)
same,GI50,[7],> 100 µM (inactive)
same,GI50,[8],> 100 µM (inactive)
same,GI50,[9],> 100 µM (inactive)
same,GI50,[10],> 100 µM (inactive)
same,GI50,[11],> 100 µM (inactive)
same,GI50,[12],> 100 µM (inactive)
same,GI50,[13],> 100 µM (inactive)
same,GI50,[14],> 100 µM (inactive)
same,GI50,[15],> 100 µM (inactive)
same,GI50,[16],> 100 µM (inactive)
same,GI50,[17],> 100 µM (inactive)
same,GI50,[18],> 100 µM (inactive)
same,GI50,[19],> 100 µM (inactive)
same,GI50,[20],> 100 µM (inactive)
same,GI50,[21],> 100 µM (inactive)
same,GI50,[22],> 100 µM (inactive)
same,GI50,[23],> 100 µM (inactive)
same,GI50,[24],> 100 µM (inactive)
same,GI50,[25],> 100 µM (inactive)
same,GI50,[26],> 100 µM (inactive)
same,GI50,[27],> 100 µM (inactive)
same,GI50,[28],> 100 µM (inactive)
same,GI50,[29],> 100 µM (inactive)
same,GI50,[30],> 100 µM (inactive)
same,GI50,[31],> 100 µM (inactive)
same,GI50,[32],> 100 µM (inactive)
same,GI50,[33],> 100 µM (inactive)
same,GI50,[34],> 100 µM
same,GI50,[35],> 100 µM (inactive)
same,GI50,[36],> 100 µM (inactive)
same,GI50,[37],> 100 µM (inactive)
same,GI50,[38],> 100 µM (inactive)
same,GI50,[39],> 100 µM (inactive)
same,GI50,[40],> 100 µM (inactive)
same,GI50,[41],> 100 µM (inactive)
same,GI50,[42],> 100 µM (inactive)
same,GI50,[43],> 100 µM (inactive)
same,GI50,[44],> 100 µM (inactive)
same,GI50,[45],> 100 µM (inactive)
same,GI50,[46],> 100 µM (inactive)
same,GI50,[47],> 100 µM (inactive)
CCOc1ccccc1NC(=O)CCc1nnc(S)[nH]1,GI50,[1],> 100 µM (inactive)
same,GI50,[2],> 100 µM (inactive)
same,GI50,[3],> 100 µM (inactive)
same,GI50,[4],> 100 µM (inactive)
same,GI50,[48],> 100 µM (inactive)
same,GI50,[49],> 100 µM (inactive)
same,GI50,[5],> 100 µM (inactive)
same,GI50,[6],> 100 µM (inactive)
same,GI50,[8],> 100 µM (inactive)
same,GI50,[50],> 100 µM (inactive)
same,GI50,[9],> 100 µM (inactive)
same,GI50,[10],> 100 µM (inactive)
same,GI50,[11],> 100 µM (inactive)
same,GI50,[12],> 100 µM (inactive)
same,GI50,[13],> 100 µM (inactive)
same,GI50,[14],> 100 µM (inactive)
same,GI50,[15],> 100 µM (inactive)
same,GI50,[51],> 100 µM (inactive)
same,GI50,[16],> 100 µM (inactive)
same,GI50,[17],> 100 µM (inactive)
same,GI50,[18],> 100 µM (inactive)
same,GI50,[19],> 100 µM (inactive)
same,GI50,[52],> 100 µM (inactive)
same,GI50,[20],> 100 µM (inactive)
same,GI50,[21],> 100 µM (inactive)
same,GI50,[22],> 100 µM (inactive)
same,GI50,[53],> 100 µM (inactive)
same,GI50,[23],> 100 µM (inactive)
same,GI50,[25],59.7 µM (inactive)
same,GI50,[26],> 100 µM (inactive)
same,GI50,[54],> 100 µM (inactive)
same,GI50,[27],> 100 µM (inactive)
same,GI50,[28],> 100 µM (inactive)
same,GI50,[55],> 100 µM (inactive)
same,GI50,[29],> 100 µM (inactive)
same,GI50,[30],> 100 µM (inactive)
same,GI50,[31],> 100 µM (inactive)
same,GI50,[32],> 100 µM (inactive)
same,GI50,[33],> 100 µM (inactive)
same,GI50,[56],> 100 µM (inactive)
same,GI50,[34],> 100 µM
same,GI50,[35],> 100 µM (inactive)
same,GI50,[36],> 100 µM (inactive)
same,GI50,[37],> 100 µM (inactive)
same,GI50,[38],> 100 µM (inactive)
same,GI50,[39],> 100 µM (inactive)
same,GI50,[40],> 100 µM (inactive)
same,GI50,[41],> 100 µM (inactive)
same,GI50,[42],> 100 µM (inactive)
same,GI50,[44],> 100 µM (inactive)
same,GI50,[45],> 100 µM (inactive)
same,GI50,[57],> 100 µM (inactive)
same,GI50,[46],> 100 µM (inactive)
same,GI50,[47],> 100 µM (inactive)
CC12c3ccccc3C(OC=O)(c3ccccc31)C1(C)c3ccccc3C2(OC=O)c2ccccc21,GI50,[1],> 100 µM (inactive)
same,GI50,[2],> 100 µM (inactive)
same,GI50,[3],> 100 µM (inactive)
same,GI50,[4],> 100 µM (inactive)
same,GI50,[48],> 100 µM (inactive)
same,GI50,[58],75.7 µM (inactive)
same,GI50,[49],> 100 µM (inactive)
same,GI50,[5],> 100 µM (inactive)
same,GI50,[6],> 100 µM (inactive)
same,GI50,[7],> 100 µM (inactive)
same,GI50,[8],> 100 µM (inactive)
same,GI50,[50],> 100 µM (inactive)
same,GI50,[9],> 100 µM (inactive)
same,GI50,[10],> 100 µM (inactive)
same,GI50,[11],> 100 µM (inactive)
same,GI50,[12],> 100 µM (inactive)
same,GI50,[13],> 100 µM (inactive)
same,GI50,[14],> 100 µM (inactive)
same,GI50,[15],> 100 µM (inactive)
same,GI50,[51],> 100 µM (inactive)
same,GI50,[16],> 100 µM (inactive)
same,GI50,[17],> 100 µM (inactive)
same,GI50,[18],> 100 µM (inactive)
same,GI50,[59],81.1 µM (inactive)
same,GI50,[19],> 100 µM (inactive)
same,GI50,[52],> 100 µM (inactive)
same,GI50,[20],> 100 µM (inactive)
same,GI50,[21],> 100 µM (inactive)
same,GI50,[22],> 100 µM (inactive)
same,GI50,[53],> 100 µM (inactive)
same,GI50,[23],> 100 µM (inactive)
same,GI50,[25],> 100 µM (inactive)
same,GI50,[26],> 100 µM (inactive)
same,GI50,[54],> 100 µM (inactive)
same,GI50,[27],> 100 µM (inactive)
same,GI50,[28],> 100 µM (inactive)
same,GI50,[55],> 100 µM (inactive)
same,GI50,[29],18.4 µM (inactive)
same,GI50,[30],48.5 µM (inactive)
same,GI50,[31],> 100 µM (inactive)
same,GI50,[32],> 100 µM (inactive)
same,GI50,[33],> 100 µM (inactive)
same,GI50,[56],> 100 µM (inactive)
same,GI50,[34],> 100 µM
same,GI50,[35],> 100 µM (inactive)
same,GI50,[36],> 100 µM (inactive)
same,GI50,[37],95.5 µM (inactive)
same,GI50,[38],36.6 µM (inactive)
same,GI50,[40],> 100 µM (inactive)
same,GI50,[41],81.3 µM (inactive)
same,GI50,[42],> 100 µM (inactive)
same,GI50,[43],> 100 µM (inactive)
same,GI50,[44],25.2 µM (inactive)
same,GI50,[45],> 100 µM (inactive)
same,GI50,[57],> 100 µM (inactive)
same,GI50,[46],> 100 µM (inactive)
same,GI50,[47],> 100 µM (inactive)
